Results reported in publication PMC9298260, “An Immunomodulatory Peptide Dendrimer Inspired from Glatiramer Acetate” (Angewandte Chemie (International Ed. in English), 2021).

Legend:
[1] = tested on: PBMC; type: cell-based, human; settings: 100-12.5 µg/mL, 24 h, AlamarBlue further 12 h, fluorescence, normalized to untreated, n = 3
Excerpt: To assess the activity requirements for 1 and 4, we performed a structure–activity relationship (SAR) study on the level of induced IL‐1Ra release measured by immunoassay, which we verified in selected cases at the mRNA level by RT‐qPCR (Figure 2). […]
and centrifuged at the same conditions. PBMC collected from the interface were washed 3 times with supplemented RPMI.
Monocytes purification using magnetic beads labelling Isolation KIT II
Monocytes were purified from whole PBMC by negative selection, all procedures were carried out according to manufacturer protocol. Briefly, the non-monocytes were labeled with a cocktail of biotin-conjugated monoclonal antibodies as a primary labeling reagent. Then as a secondary labeling reagent were used anti-biotin microbeads. The mixture was run through the MACS column (MACS, Miltenyi Biotech) in the magnetic field of a MACS Separator (MACS, Miltenyi Biotech). […]
supplemented with 10% heat-inactivated FBS, 50 μg/mL streptomycin, 50 U/mL penicillin, 2 mM L-glutamine, and 5 μg/mL. […] Then, plates were measured on a Tecan Infinite M1000 Pro plate reader at λex= 560 nm and λem= 590 nm and value normalized to the […]
Figure S1. […] After incubation 50 µl of 50% AlamarBlue was added in supplemented medium for additional 12 h, then fluorescence was measured according to manufacture protocol. […]

[2] = Circular dichroism spectroscopy; type: physicochemical; settings: 100 μg/mL, 8 mM phosphate buffer pH 7.2/7.4
Protocol: In terms of stereochemistry, activity was lost with D‐enantiomers D‐1 and D‐4, similar to the inactivity reported for D‐enantiomeric GA.[2]
Circular dichroism (CD) experiments were measured on a Jasco J-715 Spectropolarimeter. All the experiments were performed using Hellma Suprasil 110-QS 0.1 cm cuvettes. For each peptide, the measurements were performed in phosphate buffer (PB, pH=7.2, 8 mM) and in the presence of 5 mM dodecylphosphocholine. The concentration of the peptides was 100.0 μg/mL and each sample was measured using one accumulation. The scan rate was 10 nm/min, pitch 0.5 nm, response 16 sec and bandwidth 1.0 nm. The nitrogen flow was kept >8.5 L/min. After each measurement, the cuvettes were washed successively with 1 M HCl, milli-Q H2O and PB buffer. The baseline was recorded under the same conditions and subtracted manually.
Figure S12. Circular dichroism spectra of GA, 1 and 4 (100 μg/mL) in 8 mM phosphate buffer at pH 7.4 (a) or in presence of 5 mM dodecylphosphocholine. Percentage of α-helix and β- sheet was processed by Dichroweb using the CONTIN analysis program and reference set 3.
(1 picture or pasted object on this page, not shown here)

[3] = tested on: IL-1Ra release from human primary monocytes; assay: IL-1Ra release from human primary monocytes, immunoassay (ELISA) of supernatants; type: cell-based; design: key: +: Ability to induce IL-1Ra on primary monocytes after 48 h of incubation; Ability to induce IL-1Ra on primary monocytes after 48 h of incubation; settings: Table S1 initial library; primary monocytes, 48 h
Protocol: As an activity screen we focused on interleukin‐1 receptor antagonist (IL‐1Ra), a cytokine released by circulating antigen presenting cells (APC) in response to GA.[15, 35] […] To test our dendrimers, we quantified by immunoassay the release of IL‐1Ra from human primary monocytes of healthy donors, an easily accessible type of APC, stimulated or not by addition of lipopolysaccharide (LPS), which in our hands provided a reliable read‐out.[15] We tested at defined weight/volume (25 and 50 μg mL^−1 compound as typically reported for GA)[15, 35] to account for a possible activity increase with MW as often observed with dendrimers when using molarity. In the initial screen the levels of secreted IL‐1Ra remained below 1 ng mL^−1 for all the smaller test compounds as well as with the linear peptide analogs of GA.
Figure 2 Cytokine level of IL‐1Ra in supernatants of primary human monocytes of healthy donors treated with peptide dendrimers, evaluated by ELISA (bars, left vertical axis) and mRNA levels (▴, right vertical axis). […] For mRNA levels evaluation, 2×10^6 cells 3 mL^−1 in 6 well plates were incubated with 50 μg mL^−1 dendrimer or GA for 18 h. […]
Enzyme-linked immunosorbent assay (ELISA)
Monocytes (5×10^4 cells/200 μL well; 96-well plates) were preincubated for 1 h with or without compounds in RPMI-1640 medium supplemented with 10% heat-inactivated FBS, 50 μg/mL streptomycin, 50 U/mL penicillin, 2 mM L-glutamine, and 5 μg/mL polymyxin B sulfate and then cultured for 48 h in the presence or absence of LPS (100 ng/mL) (2). The production of IL-1Ra was measured in culture supernatants by commercially available enzyme immunoassay according to manufacture protocol.
Figure S2. Cytokine level of IL-1Ra in supernatants of monocytes for active dendrimers and analogues evaluated by ELISA assay on primary human monocytes of healthy donors. 5×10^4 cells/200 µL in 96 well plates, were incubated with dendrimers or GA as a control for 48 h in presence or absence of LPS (100 ng/mL), in a range of concentrations (50-25 µg/mL) (mean ± SD, n = 2 different experiments). The results are present as the difference between each sample and the non-treated sample to take into account the difference between base line for each donor.
Figure S3. Cytokine level of IL-1Ra in supernatants of monocytes for active dendrimers and […]
presence or absence of LPS (100 ng/mL), in a range of concentrations (100-12.5 µg/mL) (mean ± SD, n = 3 different experiments). […]

(KA)8(KAK)4(KEKA)2KAKEAYCA-NH2 [compound 1, G3 peptide dendrimer]
viability of PBMC / cellular toxicity [1]: did not show measurable cellular toxicity | conformation by CD spectra [2]: unordered conformation | Act. (ability to induce IL-1Ra) [3]: +
